pIC50: −log10 of the molar value. Where two headings read alike, the source gives them in different places.
Assays:
[1] = Toxicokinetics in 13-week topical ocular rabbit study; settings: New Zealand White, in vivo, topical or ocular
Method: GW559090A was given to New Zealand White Rabbits by topical ocular administration for 13 weeks. Animals were dosed six or twelve times per day, with one hour between doses. Treatment groups were: (1) vehicle (12 times a day), (2) 30 mg/mL/occasion given six times a day, (3) 50 mg/mL/occasion given six times a day, or (4) 50 mg/mL/occasion, given 12 times a day.
GW559090A was formulated as a stock solution in 25 mM phosphate buffer with 0.5% sodium chloride to provide a 50 mg/mL stock solution, which was used for administration to Groups 3 or 4, or further diluted with 25 mM phosphate buffer with 0.75% sodium chloride to provide a 30 mg/mL solution for administration to Group 2. Control animals were treated with the vehicle for 50 mg/mL solution (25 mM phosphate buffer with 0.5% sodium chloride).
During the 13 week treatment period rabbits received daily topical ocular doses of GW559090A or vehicle at a constant dose volume of 0.06 mL (given 6 or 12 times a day, with one hour between doses). The test article formulation or vehicle was carefully dropped into the partially everted lower eyelid of the right eye from a suitable distance, to prevent contact of the positive displacement pipette with the eye. The lower and upper lids were then gently held together for approximately five seconds, to prevent loss of dose and aid even distribution across the external ocular surface. The un-dosed eye was not manipulated at any time and served as a within animal untreated control site.

[2] = test system: non-α4 integrins, including LFA-1; settings: cited from earlier work
[3] = test system: RPMI 8866 binding to CS-1; assay: CS-1 cell adhesion assay, RPMI 8866 cells; type: cell-based; settings: Homo sapiens; RPMI 8866 cells to CS-1; identical duplicate values; read-out: Inhibition of cell adhesion (IC50)
Method: Jurkat J6 cells (human lymphoblast cell line) were grown as a suspension culture in RPMI 1640 supplemented with FCS (10%) and glutamine (2 mM). RPMI8866 cells (human B lymphoid cell line) were grown as a suspension culture in RPMI 1640 supplemented with FCS (10%) and glutamine (2 mM). RBL-2H3 cells (rat basophilic cell line) were cultured in Eagle's MEM plus Earles salts supplemented with 2 mM L-glutamine, 1 mM sodium pyruvate, 1× non-essential amino acids, 1 mM Na pyruvate 10% heat inactivated foetal calf serum.
Polystyrene 96-well microtitre plates were coated with CS-1 (connecting segment 1, a cell attachment domain of fibronectin) at a concentration of 0.01 mg/mL in bicarbonate buffer overnight at 4° C. The solution was aspirated and the plates washed twice with PBS. The plates were then incubated at room temperature in the presence of 3% BSA for 60 min, ‘flicked’ to expel the BSA and washed twice in bicarbonate buffer. J6 or RPMI cells (as required) were labelled with the fluorescent dye BCECF-AM (10 μM and 6×10^6 cells/mL) for 10 min at 37° C. before the excess was removed by centrifugation at 500 g for 5 min and the cells resuspended at a cell concentration of 1.2×10^7 cells/mL in HBSS. Equal volumes of HBSS containing the compound of formula I (over concentration range 19.0 pM to 5 μM) and cells were added to the CS-1 coated plates. […] The plates were counted in a Wallac Viktor.

[4] = female, 30 mg/mL/occasion, female rabbits, 30 mg/mL, 6 daily doses, Day 1, after the first daily dose
[5] = female, 30 mg/mL/occasion, female rabbits, 30 mg/mL, 6 daily doses, Week 4, after the first daily dose
[6] = female, 30 mg/mL/occasion, female rabbits, 30 mg/mL, 6 daily doses, Week 13, after the first daily dose
[7] = female, 50 mg/mL/occasion, female rabbits, 50 mg/mL, 6 daily doses, Day 1, after the first daily dose
[8] = female, 50 mg/mL/occasion, female rabbits, 50 mg/mL, 6 daily doses, Week 4, after the first daily dose
[9] = female, 50 mg/mL/occasion, female rabbits, 50 mg/mL, 6 daily doses, Week 13, after the first daily dose
[10] = female, 50 mg/mL/occasion, female rabbits, 50 mg/mL, 12 daily doses, Day 1, after the first daily dose
[11] = female, 50 mg/mL/occasion, female rabbits, 50 mg/mL, 12 daily doses, Week 4, after the first daily dose
[12] = female, 50 mg/mL/occasion, female rabbits, 50 mg/mL, 12 daily doses, Week 14, after the first daily dose
[13] = male, 30 mg/mL/occasion, male rabbits, 30 mg/mL, 6 daily doses, Day 1, after the first daily dose
[14] = male, 30 mg/mL/occasion, male rabbits, 30 mg/mL, 6 daily doses, Week 4, after the first daily dose
[15] = male, 30 mg/mL/occasion, male rabbits, 30 mg/mL, 6 daily doses, Week 13, after the first daily dose
[16] = male, 50 mg/mL/occasion, male rabbits, 50 mg/mL, 6 daily doses, Day 1, after the first daily dose
[17] = male, 50 mg/mL/occasion, male rabbits, 50 mg/mL, 6 daily doses, Week 4, after the first daily dose
[18] = male, 50 mg/mL/occasion, male rabbits, 50 mg/mL, 6 daily doses, Week 13, after the first daily dose
[19] = male, 50 mg/mL/occasion, male rabbits, 50 mg/mL, 12 daily doses, Day 1, after the first daily dose
[20] = male, 50 mg/mL/occasion, male rabbits, 50 mg/mL, 12 daily doses, Week 4, after the first daily dose
[21] = male, 50 mg/mL/occasion, male rabbits, 50 mg/mL, 12 daily doses, Week 14, after the first daily dose

## Cc1ccccc1OCC(=O)N[C@@H](CC(C)C)C(=O)N[C@@H](Cc1ccc(OC(=O)N2CCC(C(N)=O)CC2)cc1)C(=O)O [GW559090, (2S)-3-[4-({[4-(Aminocarbonyl)-1-piperidinyl]carbonyl}oxy)phenyl]-2-[((2S)-4-methyl-2-{[2-(2-methylphenoxy)acetyl]amino}pentanoyl)amino]propanoic acid]
[1]; [4]
  Cmax: 16 ng/mL
  Tmax: 4.98 min
[1]; female, 30 mg/mL/occasion, female rabbits, 30 mg/mL, 6 daily doses, Day 1, read-out: AUC0-1
  AUC(0-t): 4.19 ng·h/mL
[1]; female, 30 mg/mL/occasion, female rabbits, 30 mg/mL, 6 daily doses, Day 1, read-out: AUC0-24
  AUC(0-t): 25.1 ng·h/mL
[1]; [5]
  Cmax: 32.4 ng/mL
  Tmax: 4.98 min
[1]; female, 30 mg/mL/occasion, female rabbits, 30 mg/mL, 6 daily doses, Week 4, read-out: AUC0-1
  AUC(0-t): 10.6 ng·h/mL
[1]; female, 30 mg/mL/occasion, female rabbits, 30 mg/mL, 6 daily doses, Week 4, read-out: AUC0-24
  AUC(0-t): 63.6 ng·h/mL
[1]; [6]
  Cmax: 23.5 ng/mL
  Tmax: 15 min
[1]; female, 30 mg/mL/occasion, female rabbits, 30 mg/mL, 6 daily doses, Week 13, read-out: AUC0-1
  AUC(0-t): 9.83 ng·h/mL
[1]; female, 30 mg/mL/occasion, female rabbits, 30 mg/mL, 6 daily doses, Week 13, read-out: AUC0-24
  AUC(0-t): 59 ng·h/mL
[1]; [7]
  Cmax: 67.8 ng/mL
  Tmax: 4.98 min
[1]; female, 50 mg/mL/occasion, female rabbits, 50 mg/mL, 6 daily doses, Day 1, read-out: AUC0-1
  AUC(0-t): 11 ng·h/mL
[1]; female, 50 mg/mL/occasion, female rabbits, 50 mg/mL, 6 daily doses, Day 1, read-out: AUC0-24
  AUC(0-t): 66 ng·h/mL
[1]; [8]
  Cmax: 44.4 ng/mL
  Tmax: 4.98 min
[1]; female, 50 mg/mL/occasion, female rabbits, 50 mg/mL, 6 daily doses, Week 4, read-out: AUC0-1
  AUC(0-t): 12.6 ng·h/mL
[1]; female, 50 mg/mL/occasion, female rabbits, 50 mg/mL, 6 daily doses, Week 4, read-out: AUC0-24
  AUC(0-t): 75.6 ng·h/mL
[1]; [9]
  Cmax: 49.7 ng/mL
  Tmax: 4.98 min
[1]; female, 50 mg/mL/occasion, female rabbits, 50 mg/mL, 6 daily doses, Week 13, read-out: AUC0-1
  AUC(0-t): 15.7 ng·h/mL
[1]; female, 50 mg/mL/occasion, female rabbits, 50 mg/mL, 6 daily doses, Week 13, read-out: AUC0-24
  AUC(0-t): 94.2 ng·h/mL
[1]; [10]
  Cmax: 30.6 ng/mL
  Tmax: 4.98 min
[1]; female, 50 mg/mL/occasion, female rabbits, 50 mg/mL, 12 daily doses, Day 1, read-out: AUC0-1
  AUC(0-t): 7.3 ng·h/mL
[1]; female, 50 mg/mL/occasion, female rabbits, 50 mg/mL, 12 daily doses, Day 1, read-out: AUC0-24
  AUC(0-t): 87.6 ng·h/mL
[1]; [11]
  Cmax: 56.6 ng/mL
  Tmax: 4.98 min
[1]; female, 50 mg/mL/occasion, female rabbits, 50 mg/mL, 12 daily doses, Week 4, read-out: AUC0-1
  AUC(0-t): 13.1 ng·h/mL
[1]; female, 50 mg/mL/occasion, female rabbits, 50 mg/mL, 12 daily doses, Week 4, read-out: AUC0-24
  AUC(0-t): 157 ng·h/mL
[1]; [12]
  Cmax: 68 ng/mL
  Tmax: 4.98 min
[1]; female, 50 mg/mL/occasion, female rabbits, 50 mg/mL, 12 daily doses, Week 14, read-out: AUC0-1
  AUC(0-t): 35.5 ng·h/mL
[1]; female, 50 mg/mL/occasion, female rabbits, 50 mg/mL, 12 daily doses, Week 14, read-out: AUC0-24
  AUC(0-t): 426 ng·h/mL
[1]; [13]
  Cmax: 30.8 ng/mL
  Tmax: 4.98 min
[1]; male, 30 mg/mL/occasion, male rabbits, 30 mg/mL, 6 daily doses, Day 1, read-out: AUC0-1
  AUC(0-t): 7.86 ng·h/mL
[1]; male, 30 mg/mL/occasion, male rabbits, 30 mg/mL, 6 daily doses, Day 1, read-out: AUC0-24
  AUC(0-t): 47.2 ng·h/mL
[1]; [14]
  Cmax: 51.4 ng/mL
  Tmax: 4.98 min
[1]; male, 30 mg/mL/occasion, male rabbits, 30 mg/mL, 6 daily doses, Week 4, read-out: AUC0-1
  AUC(0-t): 9.23 ng·h/mL
[1]; male, 30 mg/mL/occasion, male rabbits, 30 mg/mL, 6 daily doses, Week 4, read-out: AUC0-24
  AUC(0-t): 55.4 ng·h/mL
[1]; [15]
  Cmax: 11.8 ng/mL
  Tmax: 4.98 min
[1]; male, 30 mg/mL/occasion, male rabbits, 30 mg/mL, 6 daily doses, Week 13, read-out: AUC0-1
  AUC(0-t): 9.1 ng·h/mL
[1]; male, 30 mg/mL/occasion, male rabbits, 30 mg/mL, 6 daily doses, Week 13, read-out: AUC0-24
  AUC(0-t): 54.6 ng·h/mL
[1]; [16]
  Cmax: 105 ng/mL
  Tmax: 4.98 min
[1]; male, 50 mg/mL/occasion, male rabbits, 50 mg/mL, 6 daily doses, Day 1, read-out: AUC0-1
  AUC(0-t): 14.4 ng·h/mL
[1]; male, 50 mg/mL/occasion, male rabbits, 50 mg/mL, 6 daily doses, Day 1, read-out: AUC0-24
  AUC(0-t): 86.4 ng·h/mL
[1]; [17]
  Cmax: 80.4 ng/mL
  Tmax: 4.98 min
[1]; male, 50 mg/mL/occasion, male rabbits, 50 mg/mL, 6 daily doses, Week 4, read-out: AUC0-1
  AUC(0-t): 17.9 ng·h/mL
[1]; male, 50 mg/mL/occasion, male rabbits, 50 mg/mL, 6 daily doses, Week 4, read-out: AUC0-24
  AUC(0-t): 107 ng·h/mL
[1]; [18]
  Cmax: 32.2 ng/mL
  Tmax: 4.98 min
[1]; male, 50 mg/mL/occasion, male rabbits, 50 mg/mL, 6 daily doses, Week 13, read-out: AUC0-1
  AUC(0-t): 17.6 ng·h/mL
[1]; male, 50 mg/mL/occasion, male rabbits, 50 mg/mL, 6 daily doses, Week 13, read-out: AUC0-24
  AUC(0-t): 106 ng·h/mL
[1]; [19]
  Cmax: 66.3 ng/mL
  Tmax: 4.98 min
[1]; male, 50 mg/mL/occasion, male rabbits, 50 mg/mL, 12 daily doses, Day 1, read-out: AUC0-1
  AUC(0-t): 12.1 ng·h/mL
[1]; male, 50 mg/mL/occasion, male rabbits, 50 mg/mL, 12 daily doses, Day 1, read-out: AUC0-24
  AUC(0-t): 145 ng·h/mL
[1]; [20]
  Cmax: 41.4 ng/mL
  Tmax: 4.98 min
[1]; male, 50 mg/mL/occasion, male rabbits, 50 mg/mL, 12 daily doses, Week 4, read-out: AUC0-1
  AUC(0-t): 11.6 ng·h/mL
[1]; male, 50 mg/mL/occasion, male rabbits, 50 mg/mL, 12 daily doses, Week 4, read-out: AUC0-24
  AUC(0-t): 139 ng·h/mL
[1]; [21]
  Cmax: 38.1 ng/mL
  Tmax: 30 min
[1]; male, 50 mg/mL/occasion, male rabbits, 50 mg/mL, 12 daily doses, Week 14, read-out: AUC0-1
  AUC(0-t): 19.6 ng·h/mL
[1]; male, 50 mg/mL/occasion, male rabbits, 50 mg/mL, 12 daily doses, Week 14, read-out: AUC0-24
  AUC(0-t): 235 ng·h/mL
[2]
  Selectivity vs. non-α4 integrins: highly selective
[3]
  pIC50: 7.61

From US10413535B2, “Pharmaceutical compositions comprising an integrin ALPHA4 antagonist for use in treating ocular inflammatory conditions” (AXEROVISION, INC., priority 2015, dated 2019)
